Usually IC50 stands for the concentration that inhibits the measured activity by half. Low values mean greater potency, high ones weaker potency.

The values that follow come from patent publication US11548868B2, “Heterocyclic compounds, compositions comprising heterocyclic compound, and methods of use thereof” (JS INNOPHARM (SHANGHAI) LTD, priority 2017, dated 2023).

Assay [1] addresses T1, IDO1 in Hela cancer cells (Homo sapiens, UniProt P14902).
T1 construct: endogenous in cells; host or cells: Hela cancer cells stimulated with human IFN-γ
In words: IDO1 Cellular Assay (kynurenine production in IFN-γ stimulated Hela cancer cells). Particulars: human IFN-γ 50 ng/mL, 48 hours incubation, kynurenine at 490 nm. It is filed as cell-based. Put shortly: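 HeLa cells stimulated with 50 ng/mL IFN-γ (final) and treated 48 h with compound (0–25 μM final, 0.25% DMSO). Supernatant kynurenine measured after TCA hydrolysis and p-dimethylaminobenzaldehyde reaction at 490 nm; inhibition vs DMSO control, IC50 by non-linear regression.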

The target of assay [2] is T2, TDO2 in A172 cancer cells (Homo sapiens, UniProt P48775).
T2 construct: endogenous in cells; host or cells: A172 cancer cells
In words: TDO2 Cellular Assay (kynurenine production in A172 cancer cells). It is filed as cell-based. Particulars: L-Trp 1 mM, 24 hours incubation, kynurenine at 490 nm. In outline:
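Kynurenine output of A172 cells was read colorimetrically at 490 nm (Ehrlich reagent after TCA hydrolysis at 50 °C). Cells had 1 mM L-Trp plus compound at 0–25 μM in 0.25% DMSO for 24 h; IC50 values were fitted non-linearly from percent inhibition relative to vehicle.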

T1 sequence (P14902 whole entry): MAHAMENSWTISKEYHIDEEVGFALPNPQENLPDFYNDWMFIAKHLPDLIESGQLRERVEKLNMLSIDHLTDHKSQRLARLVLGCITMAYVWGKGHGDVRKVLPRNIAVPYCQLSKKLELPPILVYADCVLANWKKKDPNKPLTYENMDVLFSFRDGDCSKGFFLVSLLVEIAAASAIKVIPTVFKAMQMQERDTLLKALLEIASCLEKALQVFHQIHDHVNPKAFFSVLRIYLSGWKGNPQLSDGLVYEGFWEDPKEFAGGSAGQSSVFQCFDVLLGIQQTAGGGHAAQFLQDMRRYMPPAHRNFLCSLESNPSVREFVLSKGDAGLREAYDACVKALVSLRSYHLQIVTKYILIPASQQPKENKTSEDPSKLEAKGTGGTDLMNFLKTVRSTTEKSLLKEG
T2 sequence (P48775 whole entry): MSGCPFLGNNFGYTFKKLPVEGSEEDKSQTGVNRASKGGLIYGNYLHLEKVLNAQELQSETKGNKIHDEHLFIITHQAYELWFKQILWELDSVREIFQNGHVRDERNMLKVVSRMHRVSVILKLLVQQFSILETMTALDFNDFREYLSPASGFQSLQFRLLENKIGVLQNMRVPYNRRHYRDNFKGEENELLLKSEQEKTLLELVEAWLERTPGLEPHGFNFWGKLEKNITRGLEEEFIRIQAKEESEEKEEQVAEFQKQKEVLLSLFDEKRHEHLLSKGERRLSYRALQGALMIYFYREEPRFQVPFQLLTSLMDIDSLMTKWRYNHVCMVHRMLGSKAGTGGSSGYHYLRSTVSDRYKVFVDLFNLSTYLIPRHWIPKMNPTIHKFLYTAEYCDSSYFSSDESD

Consider `O=C(N[C@H]1[C@@H]2C[C@@](O)(c3cc(Cl)cc4[nH]ncc34)C[C@@H]21)c1ccnc(C(F)(F)F)c1` [Example 156, N-((1R,3r,5S,6r)-3-(6-chloro-1H-indazol-4-yl)-3-hydroxybicyclo[3.1.0]hexan-6-yl)-2-(trifluoromethyl)isonicotinamide], for which the IC50 in assay [1] and in assay [2] was no more than 0.5 µM throughout.
Consider `O=C(Nc1ccc(F)cc1)N[C@H]1[C@@H]2C[C@@](O)(c3cc(Cl)cc4[nH]ncc34)C[C@@H]21` [Example 147, 1-((1R,3r,5S,6r)-3-(6-chloro-1H-indazol-4-yl)-3-hydroxybicyclo[3.1.0]hexan-6-yl)-3-(4-fluorophenyl)urea], for which the half-inhibitory concentration (IC50) is 1 to 5 µM in assay [1] and no more than 0.5 µM in assay [2].
Take `N#CCC(=O)N[C@H]1[C@@H]2C[C@@](O)(c3cc(Cl)cc4[nH]ncc34)C[C@@H]21` [Example 137, N-((1R,3r,5S,6r)-3-(6-chloro-1H-indazol-4-yl)-3-hydroxybicyclo[3.1.0]hexan-6-yl)-2-cyanoacetamide]: the figures for the IC50 in assay [1] and in assay [2] were 1 to 5 µM and no more than 0.5 µM, respectively.
For the compound `OC1(c2cc(Cl)cc3[nH]ncc23)CC1` [Example 11, 1-(6-chloro-1H-indazol-4-yl)cyclopropanol], the IC50 in assay [1] was greater than 5 µM; in assay [2] it was no more than 0.5 µM.
As for `O=C(CC(F)(F)F)N[C@H]1[C@@H]2C[C@@](O)(c3cc(Cl)cc4[nH]ncc34)C[C@@H]21` [Example 138, N-((1R,3r,5S,6r)-3-(6-chloro-1H-indazol-4-yl)-3-hydroxybicyclo[3.1.0]hexan-6-yl)-3,3,3-trifluoropropanamide], the IC50 in assay [1] is greater than 5 µM; in assay [2], no more than 0.5 µM.
With `O=C(N[C@H]1[C@@H]2C[C@@](O)(c3cc(Cl)cc4[nH]ncc34)C[C@@H]21)c1cncc(C(F)(F)F)c1` [Example 182, N-((1R,3r,5S,6r)-3-(6-chloro-1H-indazol-4-yl)-3-hydroxybicyclo[3.1.0]hexan-6-yl)-5-(trifluoromethyl)nicotinamide], the half-inhibitory concentration (IC50) in assay [1] and in assay [2] was no more than 0.5 µM throughout.
For the compound `CC(=O)N[C@H]1[C@@H]2C[C@@](O)(c3cc(C(F)(F)F)cc4[nH]ncc34)C[C@@H]21` [Example 164, N-((1R,3r,5S,6r)-3-hydroxy-3-(6-(trifluoromethyl)-1H-indazol-4-yl)bicyclo[3.1.0]hexan-6-yl)acetamide], the 50% inhibitory concentration (IC50) in assay [1] is greater than 5 µM; in assay [2] it was no more than 0.5 µM.
Consider `O=C(N[C@H]1[C@@H]2C[C@@](O)(c3cc(Cl)cc4[nH]ncc34)C[C@@H]21)c1nc2cc(Cl)ccc2[nH]1` [Example 136, 5-chloro-N-((1R,3r,5S,6r)-3-(6-chloro-1H-indazol-4-yl)-3-hydroxybicyclo[3.1.0]hexan-6-yl)-1H-benzo[d]imidazole-2-carboxamide], for which the 50% inhibitory concentration (IC50) in assay [1] is 1 to 5 µM; in assay [2], no more than 0.5 µM.
Turning to `O=C(N[C@H]1[C@@H]2C[C@@](O)(c3cc(Cl)cc4[nH]ncc34)C[C@@H]21)c1ccc(F)c(Br)c1` [Example 176, 3-bromo-N-((1R,3r,5S,6r)-3-(6-chloro-1H-indazol-4-yl)-3-hydroxybicyclo[3.1.0]hexan-6-yl)-4-fluorobenzamide], the half-maximal inhibitory concentration (IC50) in assay [1] and in assay [2] was no more than 0.5 µM throughout.
With `CCNS(=O)(=O)N[C@H]1[C@@H]2C[C@@](O)(c3cc(Cl)cc4[nH]ncc34)C[C@@H]21` [Example 128, N′-ethyl-N-((1R,3r,5S,6r)-3-(6-chloro-1H-indazol-4-yl)-3-hydroxybicyclo[3.1.0]hexan-6-yl)sulfuric diamide], the figures for the IC50 in assay [1] and in assay [2] were 0.5 to 1 µM and no more than 0.5 µM, respectively.
Turning to `CS(=O)(=O)c1cccc(C(=O)N[C@H]2[C@@H]3C[C@@](O)(c4cc(Cl)cc5[nH]ncc45)C[C@@H]32)c1` [Example 153, N-((1R,3r,5S,6r)-3-(6-chloro-1H-indazol-4-yl)-3-hydroxybicyclo[3.1.0]hexan-6-yl)-3-(methylsulfonyl)benzamide], the IC50 is 1 to 5 µM in assay [1] and no more than 0.5 µM in assay [2].
The like results for `CC(=O)N1C[C@H]2CC(C(O)c3cc(Cl)cc4cn[nH]c34)C[C@H]2C1` (stereo partly drawn) [Example 112, 1-((3aR,6aS)-5-((5-chloro-1H-indazol-7-yl)(hydroxy)methyl)hexahydrocyclopenta[c]pyrrol-2(1H)-yl)ethanone] were, in that order, 0.5 to 1 µM and greater than 5 µM.
On the same counts, the results for `CC(=O)N1C[C@@H]2C[C@@](O)(c3c(Cl)ccc4cncn34)C[C@@H]2C1` [Example 7, 1-((3aR,5r,6aS)-5-(6-chloroimidazo[1,5-a]pyridin-5-yl)-5-hydroxyhexahydrocyclopenta[c]pyrrol-2(1H)-yl)ethanone] are greater than 5 µM and greater than 5 µM.
`O=C(N[C@H]1[C@@H]2C[C@@](O)(c3cc(Cl)cc4[nH]ncc34)C[C@@H]21)c1ccc(F)c(OC(F)(F)F)c1` [Example 180, N-((1R,3r,5S,6r)-3-(6-chloro-1H-indazol-4-yl)-3-hydroxybicyclo[3.1.0]hexan-6-yl)-4-fluoro-3-(trifluoromethoxy)benzamide]: the half-maximal inhibitory concentration (IC50) in assay [1] and in assay [2] was no more than 0.5 µM each time.
With `O=S(=O)(C1CCOCC1)N1C[C@@H]2C[C@@](O)(c3cc(Cl)cc4cn[nH]c34)C[C@@H]2C1` [Example 101, (3aR,5r,6aS)-5-(5-chloro-1H-indazol-7-yl)-2-((tetrahydro-2H-pyran-4-yl)sulfonyl)octahydrocyclopenta[c]pyrrol-5-ol], the figures for the IC50 in assay [1] and in assay [2] were greater than 5 µM and 1 to 5 µM, respectively.
Consider `CC(=O)N[C@H]1C[C@@H]2C[C@@](O)(c3cc(Cl)cc4[nH]ncc34)C[C@@H]2C1` [Example 167, N-((2r,3aR,5r,6aS)-5-(6-chloro-1H-indazol-4-yl)-5-hydroxyoctahydropentalen-2-yl)acetamide], for which the values for the half-maximal inhibitory concentration (IC50) in assay [1] and in assay [2] were greater than 5 µM and no more than 0.5 µM, respectively.
The like results for `O=C(N[C@H]1[C@@H]2C[C@@](O)(c3cc(Cl)cc4[nH]ncc34)C[C@@H]21)c1cccc(C(F)(F)F)c1` [Example 142, N-((1R,3r,5S,6r)-3-(6-chloro-1H-indazol-4-yl)-3-hydroxybicyclo[3.1.0]hexan-6-yl)-3-(trifluoromethyl)benzamide] were, in that order, no more than 0.5 µM and no more than 0.5 µM.
Turning to `CC1(C)[C@H]2CN(c3c(C4CC4)ccc4cncn34)C[C@H]2CN1S(C)(=O)=O` (racemic) [Example 55, Racemic-6-cyclopropyl-5-((3aR,6aS)-4,4-dimethyl-5-(methylsulfonyl)hexahydropyrrolo[3,4-c]pyrrol-2(1H)-yl)imidazo[1,5-a]pyridine], the concentration for half-maximal inhibition (IC50) in assay [1] and in assay [2] was greater than 5 µM in each case.
Consider `CC1(C)[C@H]2CN(c3c(C(F)(F)F)ccc4cncn34)C[C@H]2CN1S(C)(=O)=O` (racemic) [Example 48, Racemic-5-((3aR,6aS)-4,4-dimethyl-5-(methylsulfonyl)hexahydropyrrolo[3,4-c]pyrrol-2(1H)-yl)-6-(trifluoromethyl)imidazo[1,5-a]pyridine], for which the IC50 in assay [1] and in assay [2] was greater than 5 µM each time.
`CC1(C)[C@H]2CN(c3cc(C(F)(F)F)cc4cncn34)C[C@H]2CN1S(C)(=O)=O` (racemic) [Example 50, Racemic-5-((3aR,6aS)-4,4-dimethyl-5-(methylsulfonyl)hexahydropyrrolo[3,4-c]pyrrol-2(1H)-yl)-7-(trifluoromethyl)imidazo[1,5-a]pyridine]: the 50% inhibitory concentration (IC50) in assay [1] and in assay [2] was greater than 5 µM in each case.
As for `NC(=O)c1cccc(C(=O)N[C@H]2[C@@H]3C[C@@](O)(c4cc(Cl)cc5[nH]ncc45)C[C@@H]32)c1` [Example 157, N1-((1R,3r,5S,6r)-3-(6-chloro-1H-indazol-4-yl)-3-hydroxybicyclo[3.1.0]hexan-6-yl)isophthalamide], the results for the IC50 in assay [1] and in assay [2] were greater than 5 µM and no more than 0.5 µM, respectively.
On the same counts, the results for `CC1(C)[C@H]2CN(c3cc(Cl)cc4cncn34)C[C@H]2CN1S(C)(=O)=O` (racemic) [Example 44, Racemic-7-chloro-5-((3aR,6aS)-4,4-dimethyl-5-(methylsulfonyl)hexahydropyrrolo[3,4-c]pyrrol-2(1H)-yl)imidazo[1,5-a]pyridine] are greater than 5 µM and greater than 5 µM.
On the same counts, the results for `O=C(Nc1ccccc1)N[C@H]1[C@@H]2C[C@@](O)(c3cc(Cl)cc4cn[nH]c34)C[C@@H]21` [Example 132, 1-((1R,3r,5S,6r)-3-(5-chloro-1H-indazol-7-yl)-3-hydroxybicyclo[3.1.0]hexan-6-yl)-3-phenylurea] are 1 to 5 µM and 0.5 to 1 µM.
The like results for `O=C(N[C@H]1[C@@H]2C[C@@](O)(c3cc(Cl)cc4[nH]ncc34)C[C@@H]21)c1cccc(OC(F)(F)F)c1` [Example 145, N-((1R,3r,5S,6r)-3-(6-chloro-1H-indazol-4-yl)-3-hydroxybicyclo[3.1.0]hexan-6-yl)-3-(trifluoromethoxy)benzamide] were, in that order, no more than 0.5 µM and no more than 0.5 µM.
With `O=C(N[C@H]1[C@@H]2C[C@@](O)(c3cc(Cl)cc4[nH]ncc34)C[C@@H]21)c1cncc(Cl)c1` [Example 179, 5-chloro-N-((1R,3r,5S,6r)-3-(6-chloro-1H-indazol-4-yl)-3-hydroxybicyclo[3.1.0]hexan-6-yl)nicotinamide], the IC50 in assay [1] and in assay [2] was no more than 0.5 µM in each case.
